In patent publication US20070032418A1, “Small-molecule inhibitors of angiogenin and rnases and in vivo and in vitro methods of using same” (Ambion, Inc, priority 2003, published 2007) one finds Ki and KI data, which are given here for 52 compounds.

pKi: −log10 of the molar value.

A word on the pKi: it is the Ki on a negative log10 scale, so that one unit is a factor of ten.

Sequence of angiogenin (ANG) (P03950 25-147): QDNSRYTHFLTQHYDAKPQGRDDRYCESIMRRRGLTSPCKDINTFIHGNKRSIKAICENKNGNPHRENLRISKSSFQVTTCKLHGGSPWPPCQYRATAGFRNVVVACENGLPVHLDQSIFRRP

In one test the target is angiogenin (ANG) (Homo sapiens, UniProt P03950). Description: Inhibition of ANG ribonucleolytic activity, HPLC assay of oligonucleotide cleavage. It is filed as biochemical. Particulars: 20 mM Hepes, 100 mM NaCl, pH 7.0, 37° C.; read-out: Ki for inhibition of the ribonucleolytic activity of angiogenin. On the procedure:
Reaction mixtures with and without test compounds were chromatographed on a Mono Q anion-exchange column with an NaCl gradient in 10 mM Tris, pH 8. […] This information was used to calculate kcat/Km values, which were then fitted to the equation (kcat/Km)i=(kcat/Km)0/[…], where (kcat/Km)i and (kcat/Km)0 are defined as the values in the presence and absence of inhibitor, respectively, and [I] is defined as the inhibitor concentration. At least four concentrations (in a range of about 10 μM-above 100 μM) were used in the final hit confirmation in order to distinguish all true hits.
Chemical structures of selected compounds are shown in these Tables and in FIGS. 4 and 5.
As to `O=C(c1ccc(C(=O)O)c(NC(=O)c2cccc3ccccc23)c1)c1ccc(C(=O)O)c(NC(=O)c2cccc3ccccc23)c1` [CB-181431, 4,4′-dicarboxy-3,3′-bis(naphthylamido)-diphenylmethanone], the pKi is 4.39.

The same test, now with this note: inhibition of ANG-catalyzed cleavage of an RNA oligonucleotide; 20 mM Hepes, 100 mM NaCl, 37° C.
`Nc1cccc(C(=O)Nc2ccc3c(O)cc(S(=O)(=O)O)cc3c2)c1` [NCI-1743]: the KI result is listed as “in- active at 75 uM”.
Regarding `Nc1c(OCC(=O)O)ccc2cc(S(=O)(=O)O)ccc12` [NCI-16163], the KI result is recorded as “in- active at 75 uM”.
The same measure, in the same setting: for `O=C(Nc1cc(S(=O)(=O)O)cc2cc(S(=O)(=O)O)cc(O)c12)c1ccccc1` [NCI-16169] the value was “in- active at 75 uM”.
The same measure, in the same setting: for `O=S(=O)(O)c1cc(O)c2c(/N=C/c3ccccc3O)cc(S(=O)(=O)O)cc2c1` [NCI-88947] the value was “in- active at 75 uM”.

Still in this test, the particulars now being: inhibition of ANG-catalyzed cleavage of an RNA oligonucleotide; 20 mM Hepes, 100 mM NaCl, 37° C.; read-out: KI.
Turning to `O=S(=O)(O)c1cc(O)c2c(O)c(N=Nc3c(O)c(S(=O)(=O)O)cc4cc(S(=O)(=O)O)cc(O)c34)c(S(=O)(=O)O)cc2c1`, the negative-log Ki (pKi) is less than 3.00.

Still in this test, the particulars now being: read-out: KI.
For `O=S(=O)(O)c1ccc2c(/N=N/c3ccc(S(=O)(=O)O)c4ccccc34)c(O)c(S(=O)(=O)O)cc2c1` [Amaranth], the negative-log Ki (pKi) was 4.22.
In the case of `O=S(=O)(O)c1cc(O)c2ccc(Nc3ccc4c(O)cc(S(=O)(=O)O)cc4c3)cc2c1` [NCI-1698], the pKi is 3.76.
`Nc1ccc(C(=O)Nc2ccc(C(=O)Nc3ccc4c(O)cc(S(=O)(=O)O)cc4c3)cc2)cc1` [NCI-1741]: the negative-log Ki (pKi) was approximately 3.22.
`Cc1ccc(/N=N/c2c(O)ccc3cc(S(=O)(=O)O)ccc23)cc1` [NCI-7814]: the pKi was 3.76.
The same measure, in the same setting: for `Cc1cc(-c2ccc(/N=N/c3c(N)c(S(=O)(=O)O)cc4cc(S(=O)(=O)O)ccc34)c(C)c2)ccc1/N=N/c1cc(S(=O)(=O)O)c2ccccc2c1N` [NCI-7815] the value was 4.85; for `O=S(=O)(O)c1cc(/N=N/c2c(O)ccc3ccccc23)c2c(O)c(/N=N/c3ccc(S(=O)(=O)O)c4ccccc34)c(S(=O)(=O)O)cc2c1` [NCI-8674], 3.80; for `O=[N+]([O-])c1ccc(/N=N/c2c(S(=O)(=O)O)cc3cc(S(=O)(=O)O)ccc3c2O)c([N+](=O)[O-])c1` [NCI-9360], 3.51.
For the compound `COc1cc(-c2ccc(/N=N/c3ccc4c(S(=O)(=O)O)cc(S(=O)(=O)O)c(N)c4c3O)c(OC)c2)ccc1/N=N/c1ccc2c(S(=O)(=O)O)cc(S(=O)(=O)O)c(N)c2c1O` [NCI-9617, Chicago Sky Blue 6B], the negative logarithm of the Ki (pKi) is 5.30.
Turning to `O=C(O)c1ccccc1/N=N/c1c(O)c(S(=O)(=O)O)cc2cc(S(=O)(=O)O)ccc12` [NCI-12455], the pKi is 3.62.
Turning to `O=C(Nc1ccc2cc(S(=O)(=O)O)cc(S(=O)(=O)O)c2c1)Nc1ccc2cc(S(=O)(=O)O)cc(S(=O)(=O)O)c2c1` [NCI-12857], the negative-log Ki (pKi) is 3.47.
For `Cc1cc(-c2ccc(/N=N/c3c(N)c(S(=O)(=O)O)cc4cc(S(=O)(=O)O)ccc34)c(C)c2)ccc1/N=N/c1c(N)ccc2cc(S(=O)(=O)O)ccc12` [NCI-16224, direct red 34], the pKi was 5.26.
Same read-out and setting: for `COc1ccc(/C=N/c2c(O)ccc3ccccc23)cc1OC` [NCI-17061] the value was 3.05; for `Nc1ccc(/N=N/c2ccc(/C=C/c3ccc(/N=N/c4ccc(N)c5ccc(S(=O)(=O)O)cc45)cc3S(=O)(=O)O)c(S(=O)(=O)O)c2)c2cc(S(=O)(=O)O)ccc12` [NCI-34933], 3.76; for `O=C(Nc1ccc2cc(S(=O)(=O)O)ccc2c1)c1ccc([N+](=O)[O-])cc1` [NCI-37169], 3.02.
As to `Nc1ccc(C(=O)Nc2cc(S(=O)(=O)O)cc3cccc(O)c23)cc1` [NCI-37176], the pKi is 3.98.
For the compound `O=C(O)c1cc(O)c(O)c(OC(=O)c2cc(O)c(O)c(O)c2CNc2ccc3cc(S(=O)(=O)O)cc(S(=O)(=O)O)c3c2)c1` [NCI-42067], the negative logarithm of the Ki (pKi) is 3.61.
The same measure, in the same setting: then `O=[N+]([O-])c1ccc(/N=N/c2c(O)ccc3cc(S(=O)(=O)O)ccc23)cc1` [NCI-45538], with 3.52.
Regarding `O=[N+]([O-])c1ccc(/N=N/c2c(O)c(S(=O)(=O)O)cc3cc(S(=O)(=O)O)ccc23)cc1` [NCI-45540], the negative logarithm of the Ki (pKi) was 3.51.
`O=[N+]([O-])c1cccc(/N=N/c2c(O)c(S(=O)(=O)O)cc3cc(S(=O)(=O)O)ccc23)c1` [NCI-45541]: the pKi is 3.61.
`O=[N+]([O-])c1ccc(/N=N/c2c(S(=O)(=O)O)cc3cc(S(=O)(=O)O)cc(O)c3c2O)cc1` [NCI-45542]: the negative logarithm of the Ki (pKi) is 3.37.
On to `Nc1cc(S(=O)(=O)O)cc2cc(S(=O)(=O)O)c(/N=N/c3ccc([N+](=O)[O-])cc3)c(O)c12` [NCI-45550], for which the pKi is 3.74.
Turning to `Cc1ccc(/N=N/c2c(N)ccc3cc(S(=O)(=O)O)ccc23)c(C)c1` [NCI-45569], the pKi is 3.71.
The same measure, in the same setting: then `CC(=O)Nc1ccc(/N=N/c2ccc(N)c3cc(S(=O)(=O)O)ccc23)cc1` [NCI-45571], with 3.52; and `O=C(Nc1ccc2cc(S(=O)(=O)O)ccc2c1)c1ccc(/N=N/c2cc(S(=O)(=O)O)c3ccccc3c2O)cc1` [NCI-45608], with 4.12.
Same read-out and setting: then `O=C(O)c1cc(/N=N/c2ccc(/N=N/c3c(Nc4ccccc4)ccc4cc(S(=O)(=O)O)cc(O)c34)cc2)ccc1O` [NCI-45612], with 3.80.
For `Nc1ccc(/N=N/c2ccc(-c3ccc(/N=N/c4ccc(N)c5cc(S(=O)(=O)O)ccc45)cc3)cc2)c2ccc(S(=O)(=O)O)cc12` [NCI-45618], the pKi is 4.82.
Still for that read-out and setting: then `O=C(O)c1c(O)ccc(/N=N/c2ccc(/N=N/c3ccc4c(S(=O)(=O)O)cccc4c3O)c3ccccc23)c1O` [NCI-47735], with 4.07; and `O=[N+]([O-])c1ccc(/N=N/c2c(O)c(/N=N/c3cc([N+](=O)[O-])cc([N+](=O)[O-])c3O)cc(/N=N/c3cc(S(=O)(=O)O)cc4cc(S(=O)(=O)O)cc(O)c34)c2O)cc1` [NCI-47740], with 4.82.
On to `COc1cc(/N=N/c2cc(S(=O)(=O)O)cc3cc(S(=O)(=O)O)cc(O)c23)c(C)cc1/N=N/c1c(S(=O)(=O)O)cc2cc(Nc3ccccc3)ccc2c1O` [NCI-47755], for which the pKi was 4.08.
With `O=S(=O)(O)c1ccc(/N=N/c2ccc(/N=N/c3c(O)ccc4cc(S(=O)(=O)O)ccc34)cc2)cc1` [NCI-58047], the negative-log Ki (pKi) is 4.44.
Still for that read-out and setting: for `O=S(=O)(O)c1ccc(/N=N/c2ccc(/N=N/c3c(O)ccc4cc(S(=O)(=O)O)cc(S(=O)(=O)O)c34)cc2)cc1` [NCI-65546] the value was 3.89; for `COc1cc(/N=N/c2ccc(S(=O)(=O)O)cc2)ccc1/N=N/c1c(O)ccc2cc(S(=O)(=O)O)ccc12` [NCI-65553], 4.54; for `Cc1cc(-c2ccc(/N=N/c3c(O)ccc4cc(S(=O)(=O)O)cc(S(=O)(=O)O)c34)c(C)c2)ccc1/N=N/c1c(O)c(S(=O)(=O)O)cc2cc(S(=O)(=O)O)ccc12` [NCI-65568], 4.64.
The same measure, in the same setting: then `Cc1cc(/N=N/c2ccc(NC(=O)c3ccccc3)c3ccc(S(=O)(=O)O)cc23)ccc1/N=N/c1ccc2c(O)cc(S(=O)(=O)O)cc2c1` [NCI-65844], with 3.97; and `Cc1cc(NC(=O)c2ccc(/N=N/c3c(O)c(S(=O)(=O)O)cc4cc(S(=O)(=O)O)ccc34)cc2)ccc1/N=N/c1ccc2cc(S(=O)(=O)O)cc(S(=O)(=O)O)c2c1` [NCI-65845], with 5.52; and `Cc1cc(/N=N/c2ccc(/N=N/c3c(O)c(S(=O)(=O)O)cc4cc(S(=O)(=O)O)ccc34)cc2C)ccc1/N=N/c1ccc2cc(S(=O)(=O)O)cc(S(=O)(=O)O)c2c1` [NCI-65847], with 4.42.
Turning to `Nc1ccc2cc(S(=O)(=O)O)cc(O)c2c1/N=N/c1ccc(-c2ccc(/N=N/c3c(S(=O)(=O)O)cc4cc(S(=O)(=O)O)c(/N=N/c5ccc([N+](=O)[O-])cc5)c(N)c4c3O)cc2)cc1` [NCI-65855], the pKi is 3.89.
Consider `CC(=O)Nc1ccc(/N=N/c2ccc3cc(S(=O)(=O)O)cc(NC(C)=O)c3c2O)cc1` [NCI-73416], for which the pKi was 4.11.
In the case of `Nc1c(/N=N/c2cc(Cl)ccc2Cl)c(S(=O)(=O)O)cc2cc(S(=O)(=O)O)c(/N=N/c3ccc(Sc4ccc(/N=N/c5ccc(O)cc5)cc4)cc3)c(O)c12` [NCI-75661], the pKi is 4.12.
On to `Nc1ccc2cc(S(=O)(=O)O)cc(O)c2c1/N=N/c1ccc(-c2ccc(/N=N/c3c(N)ccc4cc(S(=O)(=O)O)cc(O)c34)cc2)cc1` [NCI-75778], for which the pKi is 3.77.
For the compound `O=S(=O)(O)c1cc(O)c2c(/N=N/c3ccc(/N=N/c4c(S(=O)(=O)O)cc5cc(Nc6ccccc6)ccc5c4O)c4ccccc34)cc(S(=O)(=O)O)cc2c1` [NCI-75916], the negative-log Ki (pKi) was 3.90.
Turning to `Cc1nn(-c2cc(S(=O)(=O)O)ccc2Cl)c(O)c1/N=N/c1c(NC(=O)c2ccc(N)cc2)ccc2cc(S(=O)(=O)O)ccc12` [NCI-75963], the pKi is 3.89.
In the case of `Nc1ccc2c(O)c(/N=N/c3ccc(-c4ccc(/N=N/c5c(S(=O)(=O)O)cc6cc(S(=O)(=O)O)c(/N=N/c7cc(Cl)ccc7Cl)c(N)c6c5O)cc4)cc3)c(S(=O)(=O)O)cc2c1` [NCI-77521], the negative-log Ki (pKi) is 3.71.
Turning to `Nc1ccc(/N=N/c2ccc(-c3ccc(/N=N/c4c(S(=O)(=O)O)cc5cc(S(=O)(=O)O)c(/N=N/c6ccccc6)c(O)c5c4N)cc3)cc2)c2ccc(S(=O)(=O)O)cc12` [NCI-79596], the negative-log Ki (pKi) was 5.30.
On the same count and under the same terms, then `Nc1c(/N=N/c2ccc(-c3ccc(/N=N/c4c(O)ccc5cc(S(=O)(=O)O)cc(S(=O)(=O)O)c45)cc3)cc2)c(S(=O)(=O)O)cc2cc(S(=O)(=O)O)c(/N=N/c3ccccc3)c(O)c12` [NCI-79741], with 4.64; and `Nc1ccc2cc(S(=O)(=O)O)c(/N=N/c3ccc(-c4ccc(/N=N/c5c(S(=O)(=O)O)cc6cc(S(=O)(=O)O)c(/N=N/c7cccc([N+](=O)[O-])c7)c(N)c6c5O)cc4)cc3)c(O)c2c1` [NCI-79744], with 3.61.
